test system: phosphorylation of Serine 473 in Akt in MDA-MB-468 human breast adenocarcinoma cells; test: In vitro phospho-Ser473 Akt assay (Test (c)); assay type: cell-based; conditions: Homo sapiens, MDA-MB-468, 2 h, MDA-MB-468 cells, 2 hours incubation; read-out: Test (c): IC50 versus Serine 473 in Akt
Experimental: (c) In Vitro Phospho-Ser473 Akt Assay
This assay determines the ability of test compounds to inhibit phosphorylation of Serine 473 in Akt as assessed using Acumen Explorer technology (Acumen Bioscience Limited), a plate reader that can be used to rapidly quantitate features of images generated by laser-scanning.
A MDA-MB-468 human breast adenocarcinoma cell line (LGC Promochem, Teddington, Middlesex, UK, Catalogue No. HTB-132) was routinely maintained at 37° C. with 5% CO2 up to a confluency of 70-90% in DMEM containing 10% heat-inactivated FCS and 1% L-glutamine.
For the assay, the cells were detached from the culture flask using ‘Accutase’ (Innovative Cell Technologies Inc., San Diego, Calif., USA; Catalogue No. AT104) using standard tissue culture methods and resuspended in media to give 1.7×10^5 cells per mL. Aliquots (90 μl) were seeded into each of the inner 60 wells of a black Packard 96 well plate (PerkinElmer, Boston, Mass., USA; Catalogue No. 6005182) to give a density of 15000 cells per well. Aliquots (90 μl) of culture media were placed in the outer wells to prevent edge effects. The cells were incubated overnight at 37° C. with 5% CO2 to allow them to adhere.
On day 2, the cells were treated with test compounds and incubated for 2 hours at 37° C. with 5% CO2. Test compounds were prepared as 10 mM stock solutions in DMSO and serially diluted as required with growth media to give a range of concentrations that were 10-fold the required final test concentrations. Aliquots (10 μl) of each compound dilution were placed in a well (in triplicate) to give the final required concentrations. As a minimum response control, each plate contained wells having a final concentration of 100 μM LY294002 (Calbiochem, Beeston, UK, Catalogue No. 440202). As a maximum response control, wells contained 1% DMSO instead of test compound. Following incubation, the contents of the plates were fixed by treatment with a 1.6% aqueous formaldehyde solution (Sigma, Poole, Dorset, UK, Catalogue No. F1635) at room temperature for 1 hour.
All subsequent aspiration and wash steps were carried out using a Tecan 96 well plate washer (aspiration speed 10 mm/sec). The fixing solution was removed and the contents of the plates were washed with phosphate-buffered saline (PBS; 50 μl; Gibco, Catalogue No. 10010015). The contents of the plates were treated for 10 minutes at room temperature with an aliquot (50 μl) of a cell permeabilisation buffer consisting of a mixture of PBS and 0.5% Tween-20. The ‘permeabilisation’ buffer was removed and non-specific binding sites were blocked by treatment for 1 hour at room temperature of an aliquot (50 μl) of a blocking buffer consisting of 5% dried skimmed milk [‘Marvel’ (registered trade mark); Premier Beverages, Stafford, GB] in a mixture of PBS and 0.05% Tween-20. The ‘blocking’ buffer was removed and the cells were incubated for 1 hour at room temperature with rabbit anti phospho-Akt (Ser473) antibody solution (50 μl per well; Cell Signalling, Hitchin, Herts, U.K., Catalogue No 9277) that had been diluted 1:500 in ‘blocking’ buffer. Cells were washed three times in a mixture of PBS and 0.05% Tween-20. Subsequently, cells were incubated for 1 hour at room temperature with Alexafluor488 labelled goat anti-rabbit IgG (50 μl per well; Molecular Probes, Invitrogen Limited, Paisley, UK, Catalogue No. A11008) that had been diluted 1:500 in ‘blocking’ buffer. Cells were washed 3 times with a mixture of PBS and 0.05% Tween-20. An aliquot of PBS (50 μl) was added to each well and the plates were sealed with black plate sealers and the fluorescence signal was detected and analysed.
Fluorescence dose response data obtained with each compound were analysed and the degree of inhibition of Serine 473 in Akt was expressed as an IC50 value.

In order of rising IC50:
1. C[C@H]1COCCN1c1cc(CS(=O)(=O)c2ccncc2)nc(-c2ccc(NC(=O)NC3CCC3)cc2)n1 [Example 48, 3-Cyclobutyl-1-[4-[4-[(3S)-3-methylmorpholin-4-yl]-6-(pyridin-4-ylsulfonylmethyl)pyrimidin-2-yl]phenyl]urea]  38 nM
2. C[C@H]1COCCN1c1cc(C(C)(C)O)nc(-c2ccc(NC(=O)Nc3ccon3)cc2)n1 [Example 41, 1-[4-[4-(2-Hydroxypropan-2-yl)-6-[(3S)-3-methylmorpholin-4-yl]pyrimidin-2-yl]phenyl]-3-(1,2-oxazol-3-yl)urea]  47 nM
3. C[C@H]1COCCN1c1cc(C(C)(C)S(C)(=O)=O)nc(-c2ccc(NC(=O)NCc3ccncc3)cc2)n1 [Example 24ar, 1-[4-[4-[(3S)-3-methylmorpholin-4-yl]-6-(2-methylsulfonylpropan-2-yl)pyrimidin-2-yl]phenyl]-3-(pyridin-4-ylmethyl)urea]  49 nM
4. C[C@H]1COCCN1c1cc(CS(=O)(=O)CCO)nc(-c2ccc(NC(=O)Nc3ccon3)cc2)n1 [Example 40a, 1-[4-[4-(2-hydroxyethylsulfonylmethyl)-6-[(3S)-3-methylmorpholin-4-yl]pyrimidin-2-yl]phenyl]-3-(1,2-oxazol-3-yl)urea]  55 nM
5. CC(C)CNC(=O)Nc1ccc(-c2nc(N3CCOC[C@@H]3C)cc(C(C)(C)S(C)(=O)=O)n2)cc1 [Example 24at, 1-[4-[4-[(3S)-3-methylmorpholin-4-yl]-6-(2-methylsulfonylpropan-2-yl)pyrimidin-2-yl]phenyl]-3-(2-methylpropyl)urea]  89 nM
6. CC(=O)NCCS(=O)(=O)Cc1cc(N2CCOC[C@@H]2C)nc(-c2ccc(NC(=O)Nc3ccon3)cc2)n1 [Example 40, N-[2-[[6-[(3S)-3-methylmorpholin-4-yl]-2-[4-(1,2-oxazol-3-ylcarbamoylamino)phenyl]pyrimidin-4-yl]methylsulfonyl]ethyl]acetamide]  100 nM
7. C[C@H]1COCCN1c1cc(C(C)(C)S(C)(=O)=O)nc(-c2ccc(NC(=O)NCCCO)cc2)n1 [Example 24as, 3-(3-hydroxypropyl)-1-[4-[4-[(3S)-3-methylmorpholin-4-yl]-6-(2-methylsulfonylpropan-2-yl)pyrimidin-2-yl]phenyl]urea]  220 nM
8. CC(NC(=O)Nc1ccc(-c2nc(N3CCOC[C@@H]3C)cc(C(C)(C)S(C)(=O)=O)n2)cc1)c1cccnc1 (stereo partly drawn) [Example 24ax, 1-[4-[4-[(3S)-3-methylmorpholin-4-yl]-6-(2-methylsulfonylpropan-2-yl)pyrimidin-2-yl]phenyl]-3-(1-pyridin-3-ylethyl)urea]  640 nM
9. C[C@H]1COCCN1c1cc(C(C)(C)S(C)(=O)=O)nc(-c2ccc(NC(=O)N3CCC(O)CC3)cc2)n1 [Example 24bc, 4-hydroxy-N-[4-[4-[(3S)-3-methylmorpholin-4-yl]-6-(2-methylsulfonylpropan-2-yl)pyrimidin-2-yl]phenyl]piperidine-1-carboxamide]  690 nM
10. Cc1nnc(S(=O)(=O)Cc2cc(N3CCOC[C@@H]3C)nc(-c3ccc(NC(=O)NC4CC4)cc3)n2)s1 [Example 43g, 3-cyclopropyl-1-[4-[4-[(3S)-3-methylmorpholin-4-yl]-6-[(5-methyl-1,3,4-thiadiazol-2-yl)sulfonylmethyl]pyrimidin-2-yl]phenyl]urea]  1900 nM
11. C[C@H]1COCCN1c1cc(C(C)(C)S(C)(=O)=O)nc(-c2ccc(NC(=O)NCC3CC3)cc2)n1 [Example 24aq, 3-(cyclopropylmethyl)-1-[4-[4-[(3S)-3-methylmorpholin-4-yl]-6-(2-methylsulfonylpropan-2-yl)pyrimidin-2-yl]phenyl]urea]  2000 nM
12. C[C@H]1COCCN1c1cc(C(C)(C)S(C)(=O)=O)nc(-c2ccc(NC(=O)NCc3ncc[nH]3)cc2)n1 [Example 24au, 3-(1H-imidazol-2-ylmethyl)-1-[4-[4-[(3S)-3-methylmorpholin-4-yl]-6-(2-methylsulfonylpropan-2-yl)pyrimidin-2-yl]phenyl]urea]  2400 nM
13. C[C@H]1COCCN1c1cc(C(C)(C)S(C)(=O)=O)nc(-c2ccc(NC(=O)N(C)C3CC3)cc2)n1 [Example 24bg, 1-cyclopropyl-1-methyl-3-[4-[4-[(3S)-3-methylmorpholin-4-yl]-6-(2-methylsulfonylpropan-2-yl)pyrimidin-2-yl]phenyl]urea]  2400 nM
14. C[C@H]1COCCN1c1cc(CS(=O)(=O)C23CC4CC(CC(C4)C2)C3)nc(-c2ccc(NC(=O)NC3CC3)cc2)n1 [Example 43k, 1-[4-[4-(1-adamantylsulfonylmethyl)-6-[(3S)-3-methylmorpholin-4-yl]pyrimidin-2-yl]phenyl]-3-cyclopropyl-urea]  2900 nM
15. C[C@H]1COCCN1c1cc(C(C)(C)S(C)(=O)=O)nc(-c2ccc(NC(=O)N3CCCC(O)C3)cc2)n1 (stereo partly drawn) [Example 24bd, 3-hydroxy-N-[4-[4-[(3S)-3-methylmorpholin-4-yl]-6-(2-methylsulfonylpropan-2-yl)pyrimidin-2-yl]phenyl]piperidine-1-carboxamide]  3200 nM
16. Cc1cc(CNC(=O)Nc2ccc(-c3nc(N4CCOC[C@@H]4C)cc(C(C)(C)S(C)(=O)=O)n3)cc2)no1 [Example 24aw, 3-[4-[4-[(3S)-3-methylmorpholin-4-yl]-6-(2-methylsulfonylpropan-2-yl)pyrimidin-2-yl]phenyl]-1-[(5-methyl-1,2-oxazol-3-yl)methyl]urea]  3400 nM
17. C[C@H]1COCCN1c1cc(C(C)(C)S(C)(=O)=O)nc(-c2ccc(NC(=O)NCc3cnn(C)c3)cc2)n1 [Example 24av, 1-[4-[4-[(3S)-3-methylmorpholin-4-yl]-6-(2-methylsulfonylpropan-2-yl)pyrimidin-2-yl]phenyl]-3-[(1-methylpyrazol-4-yl)methyl]urea]  4900 nM
18. C[C@H]1COCCN1c1cc(C(C)(C)S(C)(=O)=O)nc(-c2ccc(NC(=O)N3CCC3)cc2)n1 [Example 24be, N-[4-[4-[(3S)-3-methylmorpholin-4-yl]-6-(2-methylsulfonylpropan-2-yl)pyrimidin-2-yl]phenyl]azetidine-1-carboxamide]  4900 nM
19. C[C@H]1COCCN1c1cc(C(C)(C)S(C)(=O)=O)nc(-c2ccc(NC(=O)N(C)C)cc2)n1 [Example 24ba, 1,1-dimethyl-3-[4-[4-[(3S)-3-methylmorpholin-4-yl]-6-(2-methylsulfonylpropan-2-yl)pyrimidin-2-yl]phenyl]urea]  5100 nM
20. C[C@H]1COCCN1c1cc(C(C)(C)S(C)(=O)=O)nc(-c2ccc(NC(=O)NCc3ccn(C)n3)cc2)n1 [Example 24az, 1-[4-[4-[(3S)-3-methylmorpholin-4-yl]-6-(2-methylsulfonylpropan-2-yl)pyrimidin-2-yl]phenyl]-3-[(1-methylpyrazol-3-yl)methyl]urea]  5600 nM
21. C[C@H]1COCCN1c1cc(C(C)(C)S(C)(=O)=O)nc(-c2ccc(NC(=O)N3CC(O)C3)cc2)n1 [Example 24bf, 3-hydroxy-N-[4-[4-[(3S)-3-methylmorpholin-4-yl]-6-(2-methylsulfonylpropan-2-yl)pyrimidin-2-yl]phenyl]azetidine-1-carboxamide]  6700 nM
22. C[C@H]1COCCN1c1cc(C(C)(C)S(C)(=O)=O)nc(-c2ccc(NC(=O)N3CCOCC3)cc2)n1 [Example 24bb, N-[4-[4-[(3S)-3-methylmorpholin-4-yl]-6-(2-methylsulfonylpropan-2-yl)pyrimidin-2-yl]phenyl]morpholine-4-carboxamide]  7800 nM
23. C[C@H]1COCCN1c1cc(C(C)(C)S(C)(=O)=O)nc(-c2ccc(NC(=O)NCc3cc[nH]n3)cc2)n1 [Example 24ay, 1-[4-[4-[(3S)-3-methylmorpholin-4-yl]-6-(2-methylsulfonylpropan-2-yl)pyrimidin-2-yl]phenyl]-3-(1H-pyrazol-3-ylmethyl)urea]  7900 nM

Source: patent US7750003B2, “Compounds-943” (AstraZeneca AB, priority 2006, dated 2010)
